# From patent US20100292260A1, “6-VINYL PYRIMIDINE AND PYRIMIDINONE DERIVATIVES AND THE USE THEREOF” (priority 2005, published 2010)
# Like-named read-outs stand apart in the source and are kept apart here.
# Key:
# HIV-1 mutant Y188L = assay: Inhibition of viral proliferation on culture cells (MT-4, MTT), Y188L mutant; format: cell-based
# Procedure: (§1) The biological activity of the compounds was evaluated on lymphoid cell lines MT-4 against the wild strain of HIV-1 NL4-3. The MT-4 cells were briefly infected with the appropriate HIV-1 or the infection was simulated to determine the cytoxicity, in the presence of different concentrations of potential inhibitor compounds. 5 days after the infection a colorimetric method was used that involves using a tetrazole salt (MTT) to evaluate the number of surviving cells. The mutant IRLL98 HIV-1 contains the following mutations in the coding sequence for RT:M41L, D67N, Y181C, M184V, R211K, T215Y (resistance to NRTI) and the mutations K101Q, Y181C, G190A (resistance to NNRTI). The H1V-1 mutants containing multi-NNRTI mutations, K103N or Y188L as mutants were supplied by the Medical Research Council Centralised Facility for AIDS Reagents, Herfordshire, UK.
# HIV-1 mutant Y181C = assay: Inhibition of viral proliferation on culture cells (MT-4, MTT), Y181C mutant; format: cell-based
# Procedure: as §1
# [1] = system: wild strain of HIV-1 NL4-3; assay: Inhibition of viral proliferation on culture cells (MT-4, MTT), wild strain; format: cell-based
# Procedure: as §1
# HIV-1 mutant K103N = assay: Inhibition of viral proliferation on culture cells (MT-4, MTT), K103N mutant; format: cell-based
# Procedure: as §1
# [2] = target: T1, HIV-1 (recombinant) reverse transcriptase (Human immunodeficiency virus type 1 group M subtype B, UniProt P03366); assay: Enzyme test: reverse transcription reaction in vitro with recombinant RT, wild type; format: biochemical
# T1 construct: 20-50 nM HIV-1 (recombinant) reverse transcriptase
# Procedure: (§2) In a final volume of 25 microlitres the following reagents were mixed: 50 mM Tris-HCl pH 7.5, 0.25 mg/ml BSA, 0.5 mM DTT, 20-50 nM HIV-1 (recombinant) reverse transcriptase, nucleotide substrate dTTP marked radioactively (^3H, 4 Ci/mmol) and nucleic acid (poly(rA)/oligo(dT)). The concentrations of dTTP and poly(rA)/oligo(dT) in standard conditions were 5 μM and 0.5 μM, respectively.
# (§3) The reaction mixture is incubated 10 min. at 37° C. and 20 μl are removed and deposited on a GF/C Whatman glass fibre filter measuring 25 mm in diameter. The filters are washed 3 times for 5 min. in 5% trichloroacetic acid and once for 5 min. in absolute alcohol. After being dried, the filters are immersed in a scintillating mixture (Packard) and the acid precipitable radioactivity is measured by a scintillation counter for β-emitting isotopes (Beckman).
# (§4) The dose-response curves obtained by means of samples of enzyme activity in the presence of increasing doses of inhibitor were analysed according to the equation E(%)=Emax/([…], where E(%) is the fraction of enzyme activity that is measurable in the presence of each concentration of inhibitor, Emax is the activity in the absence of an inhibitor, I is the concentration of inhibitor. The ID50 was calculated by analysing data using the GraphPad Prism graphic interpolation programme (for Macintosh).
# [3] = Cytotoxicity in mock-infected MT-4 cells (MTT); format: cell-based; settings: human
# Procedure: as §1
# [4] = target: T2, reverse transcriptase containing the mutation Y181I (Human immunodeficiency virus type 1 group M subtype B, UniProt P03366, Y780I); assay: Enzyme test with mutated reverse transcriptase Y181I; format: biochemical, HIV-1
# T2 construct: cloning the gene of the mutated RT in an expression vector for prokariotic cells; made in house
# Procedure: as §2, §3
# (§5) In some experiments, the HIV-1 recombinant reverse transcriptase was substituted by a reverse transcriptase containing the mutations K.103N and Y181I. They were produced by cloning the gene of the mutated RT in an expression vector for prokariotic cells according to the method reported in the literature (Maga G, Amacker M, Ruel N, Hubscher U, Spadari S. Resistance to nevirapine of HIV-1 reverse transcriptase mutants: loss of stabilizing interactions and thermodynamic or steric barriers are induced by different single amino acid substitutions. J Mol Biol. Dec. 19, 1997; 274(5):738-47).
# as §4
# [5] = target: T3, reverse transcriptase containing the mutation K103N (Human immunodeficiency virus type 1 group M subtype B, UniProt P03366, K702N); assay: Enzyme test with mutated reverse transcriptase K103N; format: biochemical, HIV-1
# T3 construct: cloning the gene of the mutated RT in an expression vector for prokariotic cells; made in house
# Procedure: as §2, §3, §5, §4
# [6] = Table 1, recombinant RT wild type, read-out: ID50 WT
# [7] = Human immunodeficiency virus 1, read-out: Y188L
# [8] = Table 2, enzyme test, read-out: WT
# [9] = Human immunodeficiency virus 1, read-out: Y181C
# [10] = Human immunodeficiency virus 1, NL43, read-out: NL4-3 wt
# [11] = Human immunodeficiency virus 1, read-out: K100N
Structure (SMILES),EC50 (HIV-1 mutant Y188L; [7]) [µM],"IC50 [2, 8] [µM]",CC50 at 5 days [3] [µM],IC50 [4] [µM],EC50 (HIV-1 mutant Y181C; [9]) [µM],"EC50 [1, 10] [µM]",IC50 [5] [µM],EC50 (HIV-1 mutant K103N; [11]) [µM],also measured
COc1ccc(C#CCSc2nc(C(C)c3c(Cl)cccc3Cl)c(C)c(=O)[nH]2)cc1 (racemic) [Compound 27b],,,,,,,,,"EC50 (HIV-1 mutant Y188L; Table 3, cell test, read-out: Y188L): 24.8 µM; EC50 (HIV-1 mutant Y181C; Table 3, cell test, read-out: Y181C): 33.5 µM; EC50 ([1]; Table 3, cell test, read-out: NLA-3wt): 0.5 µM; EC50 (HIV-1 mutant K103N; Table 3, cell test, read-out: K103N): > 54.5 µM"
C=Cc1nc(SC)nc(N(C)C)c1I [Compound 6a],,,,,,,,,"IC50 [2, 6]: > 400 µM"
COc1ccc(/C=C/CSc2nc(Cc3c(Cl)cccc3Cl)c(C)c(=O)[nH]2)cc1 [Compound 26a],> 0.96,0.007,0.96,> 20,> 0.96,0.015,9,> 0.96,"activity in cell tests on mutant Y188L, in words (HIV-1 mutant Y188L): micromolar and submicromolar activity; activity in cell tests on mutant Y181C, in words (HIV-1 mutant Y181C): micromolar and submicromolar activity; activity in cell tests on wild type, in words [1]: nanomolar and subnanomolar activity; activity in cell tests on mutant K103N, in words (HIV-1 mutant K103N): micromolar and submicromolar activity"
Cc1c(Cc2c(Cl)cccc2Cl)nc(SCC=Cc2ccc([N+](=O)[O-])cc2)[nH]c1=O [Compound 26b],> 10.8,3.81,> 10.8,> 20,> 10.8,> 10.8,> 20,> 10.8,
CCc1c(Cc2c(Cl)cccc2Cl)nc(SCC=Cc2ccc(C#N)cc2)[nH]c1=O [Compound 26c],,0.188,> 54.8,,,1.73,,> 54.8,"Y181C, % at given concentration (HIV-1 mutant Y181C; Table 2, at 54.82): 41% at"
Cc1c(Cc2c(Cl)cccc2Cl)nc(SCC=Cc2ccc(N(C)C)cc2)[nH]c1=O [Compound 26d],> 54.4,0.788,> 54.4,,> 54.4,> 54.4,,> 54.4,
CCc1c(Cc2c(Cl)cccc2Cl)nc(SCC=Cc2ccc(OC)cc2)[nH]c1=O [Compound 26e],> 0.19,0.056,0.19,> 20,> 0.19,0.0015,> 20,> 0.19,"activity in cell tests on wild type, in words [1]: nanomolar and subnanomolar activity"
CCc1c(Cc2c(Cl)cccc2Cl)nc(SCC=Cc2ccc([N+](=O)[O-])cc2)[nH]c1=O [Compound 26f],,2.5,,> 20,,,> 20,,
COc1ccc(C=CCSc2nc(C(C)c3c(Cl)cccc3Cl)c(C)c(=O)[nH]2)cc1 (stereo not shown) [Compound 26g],1.26,0.018,> 10.8,> 20,3.6,0.009,> 20,2.47,"activity in cell tests on wild type, in words [1]: nanomolar and subnanomolar activity"
Cc1c(C(C)c2c(Cl)cccc2Cl)nc(SCC=Cc2ccc([N+](=O)[O-])cc2)[nH]c1=O (stereo not shown) [Compound 26h],,0.102,,> 20,,,> 20,,
Cc1c(Cc2c(F)cccc2F)nc(SCC=Cc2ccc([N+](=O)[O-])cc2)[nH]c1=O [Compound 26i],> 11.7,11.9,11.7,> 20,> 11.7,0.26,> 20,> 11.7,
COc1ccc(C=CCSc2nc(Cc3c(F)cccc3F)c(C)c(=O)[nH]2)cc1 [Compound 26l],> 3.93,0.25,3.93,> 20,> 3.93,0.043,> 20,> 3.93,"activity in cell tests on wild type, in words [1]: nanomolar and subnanomolar activity"
Cc1c(C(C)c2c(F)cccc2F)nc(SCC=Cc2ccc([N+](=O)[O-])cc2)[nH]c1=O (stereo not shown) [Compound 26m],> 11.3,0.283,> 11.3,> 20,> 11.3,0.14,> 20,> 11.3,
COc1ccc(C=CCSc2nc(C(C)c3c(F)cccc3F)c(C)c(=O)[nH]2)cc1 (stereo not shown) [Compound 26n],0.07,0.292,> 11.7,> 20,0.13,0.0002,3.7,0.26,"activity in cell tests on mutant Y188L, in words (HIV-1 mutant Y188L): micromolar and submicromolar activity; activity in cell tests on mutant Y181C, in words (HIV-1 mutant Y181C): micromolar and submicromolar activity; activity in cell tests on wild type, in words [1]: nanomolar and subnanomolar activity; activity in cell tests on mutant K103N, in words (HIV-1 mutant K103N): micromolar and submicromolar activity"
Cc1c(C(C)c2c(F)cccc2F)nc(SCC=Cc2ccc(C#N)cc2)[nH]c1=O (stereo not shown) [Compound 26o],> 59.1,0.161,> 59.1,,> 59.1,0.14,,> 59.1,
CCc1c(C(C)c2c(F)cccc2F)nc(SCC=Cc2ccc(C#N)cc2)[nH]c1=O (stereo not shown) [Compound 26r],> 27.2,0.048,27.2,,> 27.2,0.59,,> 27.2,
"Cc1c(Cc2c(F)cccc2F)nc(SCC#Cc2ccc([N+](=O)[O-])cc2)[nH]c1=O [Compound 27a, 6-(2,6-Difluorobenzyl)-2-(3-(4-nitrophenyl)-propynylsulfanyl)-5-methylpyrimidine-4(3H)-one]",> 58.6,,> 58.6,,> 58.6,,,,"IC50 ([2]; Table 3, enzyme test, read-out: WT): 0.416 µM; EC50 ([1]; Human immunodeficiency virus 1, NL43, read-out: NLA-3wt): 40.1 µM; EC50 (HIV-1 mutant K103N; Human immunodeficiency virus 1, read-out: K103N): > 58.6 µM"
"C=Cc1cc(N(CC)CC)nc(S(C)(=O)=O)n1 [MB3B, reference compound]",,,,> 400,,,> 400,,"IC50 [2, 6]: 21.3 µM"
